According to ChEMBL document CHEMBL3399986, “Rapid 'one-pot' synthesis of a novel benzimidazole-5-carboxylate and its hydrazone derivatives as potential anti-inflammatory and antimicrobial agents” (Bioorg Med Chem Lett, 2015):
Converted amounts (≈) assume the structure as drawn.

Assays:
Format in all cases: functional
[1] = test system: Rattus norvegicus; test: Antiinflammatory activity in rat assessed as inhibition of carrageenan-induced paw edema administered 30 mins prior to carrageenan challenge measured after 2 hrs relative to control
[2] = test system: Rattus norvegicus; test: Antiinflammatory activity in rat assessed as inhibition of carrageenan-induced paw edema administered 30 mins prior to carrageenan challenge measured after 1 hr relative to control
[3] = test system: Rattus norvegicus; test: Antiinflammatory activity in rat assessed as inhibition of carrageenan-induced paw edema administered 30 mins prior to carrageenan challenge measured after 3 hrs relative to control
[4] = test system: Staphylococcus aureus; test: Antimicrobial activity against Staphylococcus aureus MTCC 3160 assessed as zone of inhibition at 5 mg/ml after 24 hrs by agar well diffusion method; conditions: MTCC 3160, 24 h, read-out: IZ
[5] = test system: Bacillus subtilis; test: Antimicrobial activity against Bacillus subtilis MTCC 441 after 24 hrs by broth dilution method; conditions: MTCC 441, 24 h
[6] = test system: Escherichia coli; test: Antimicrobial activity against Escherichia coli MTCC 4351 after 24 hrs by broth dilution method; conditions: MTCC 4351, 24 h
[7] = test system: Escherichia coli; test: Antimicrobial activity against Escherichia coli MTCC 4351 assessed as zone of inhibition at 5 mg/ml after 24 hrs by agar well diffusion method; conditions: MTCC 4351, 24 h, read-out: IZ
[8] = test system: Klebsiella pneumoniae; test: Antimicrobial activity against Klebsiella pneumoniae MTCC 3384 assessed as zone of inhibition at 5 mg/ml after 24 hrs by agar well diffusion method; conditions: MTCC 3384, 24 h, read-out: IZ
[9] = test system: Staphylococcus aureus; test: Antimicrobial activity against Staphylococcus aureus MTCC 3160 after 24 hrs by broth dilution method; conditions: MTCC 3160, 24 h
[10] = test system: Bacillus subtilis; test: Antimicrobial activity against Bacillus subtilis MTCC 441 assessed as zone of inhibition at 5 mg/ml after 24 hrs by agar well diffusion method; conditions: MTCC 441, 24 h, read-out: IZ
[11] = test system: Klebsiella pneumoniae; test: Antimicrobial activity against Klebsiella pneumoniae MTCC 3384 after 24 hrs by broth dilution method; conditions: MTCC 3384, 24 h
[12] = test system: Candida tropicalis; test: Antifungal activity against Candida tropicalis MTCC 183 assessed as zone of inhibition at 5 mg/ml after 24 hrs by agar well diffusion method; conditions: MTCC 183, 24 h, read-out: IZ
[13] = test system: Aspergillus niger; test: Antifungal activity against Aspergillus niger MTCC 282 assessed as zone of inhibition at 5 mg/ml after 24 hrs by agar well diffusion method; conditions: MTCC 282, 24 h, read-out: IZ
[14] = test system: Candida albicans; test: Antifungal activity against Candida albicans MTCC 461 assessed as zone of inhibition at 5 mg/ml after 24 hrs by agar well diffusion method; conditions: MTCC 461, 24 h, read-out: IZ
[15] = test system: Penicillium chrysogenum; test: Antifungal activity against Penicillium notatum after 48 hrs by broth dilution method
[16] = test system: Candida tropicalis; test: Antifungal activity against Candida tropicalis MTCC 183 after 48 hrs by broth dilution method; conditions: MTCC 183, 48 h
[17] = test system: Aspergillus niger; test: Antifungal activity against Aspergillus niger MTCC 282 after 48 hrs by broth dilution method; conditions: MTCC 282, 48 h
[18] = test system: Candida albicans; test: Antifungal activity against Candida albicans MTCC 461 after 48 hrs by broth dilution method; conditions: MTCC 461, 48 h
[19] = test system: Penicillium chrysogenum; test: Antifungal activity against Penicillium notatum assessed as zone of inhibition at 5 mg/ml after 24 hrs by agar well diffusion method; conditions: read-out: IZ

Row | SMILES | inhibition (INH) [1] | inhibition (INH) [2] | inhibition (INH) [3] | zone of inhibition at 5000 µg/mL [4] | MIC [5] | MIC [6] | zone of inhibition at 5000 µg/mL [7] | zone of inhibition at 5000 µg/mL [8] | MIC [9] | zone of inhibition at 5000 µg/mL [10] | MIC [11] | zone of inhibition at 5000 µg/mL [12] | zone of inhibition at 5000 µg/mL [13] | zone of inhibition at 5000 µg/mL [14] | MIC [15] | MIC [16] | MIC [17] | MIC [18] | zone of inhibition at 5000 µg/mL [19]
1 | COc1ccc2c(c1)c(CC(=O)O)c(C)n2C(=O)c1ccc(Cl)cc1 [INDOMETHACIN] | 68.11% | 55.55% | 69.34% | – | – | – | – | – | – | – | – | – | – | – | – | – | – | – | –
2 | CC1(C)S[C@@H]2[C@H](NC(=O)[C@H](N)c3ccccc3)C(=O)N2[C@H]1C(=O)O [AMPICILLIN] | – | – | – | 26 mm | 1.56 mg/L (≈ 4.46 µM) | 1.56 mg/L (≈ 4.46 µM) | 25 mm | 23 mm | 1.56 mg/L (≈ 4.46 µM) | 24 mm | 3.12 mg/L (≈ 8.93 µM) | – | – | – | – | – | – | – | –
3 | CCCn1c(-c2ccc(Cl)cc2Cl)nc2cc(C(=O)N/N=C/c3ccccc3[N+](=O)[O-])ccc21 | 51.74% | 46.66% | 47.44% | 15 mm | 25 mg/L (≈ 50.4 µM) | 12.5 mg/L (≈ 25.2 µM) | 17 mm | 17 mm | 25 mg/L (≈ 50.4 µM) | 16 mm | 25 mg/L (≈ 50.4 µM) | 16 mm | 18 mm | 14 mm | 50 mg/L (≈ 101 µM) | 25 mg/L (≈ 50.4 µM) | 12.5 mg/L (≈ 25.2 µM) | 50 mg/L (≈ 101 µM) | 12 mm
4 | CCCn1c(-c2ccc(Cl)cc2Cl)nc2cc(C(=O)N/N=C/c3ccc(C)cc3)ccc21 | 52.72% | 49.25% | 47.73% | 20 mm | 12.5 mg/L (≈ 26.9 µM) | 12.5 mg/L (≈ 26.9 µM) | 18 mm | 18 mm | 6.25 mg/L (≈ 13.4 µM) | 17 mm | 6.25 mg/L (≈ 13.4 µM) | 18 mm | 22 mm | 16 mm | 6.25 mg/L (≈ 13.4 µM) | 6.25 mg/L (≈ 13.4 µM) | 3.12 mg/L (≈ 6.7 µM) | 12.5 mg/L (≈ 26.9 µM) | 17 mm
5 | O=C([O-])Cc1ccccc1Nc1c(Cl)cccc1Cl.[Na+] [DICLOFENAC SODIUM] | 73.28% | 62.96% | 74.74% | – | – | – | – | – | – | – | – | – | – | – | – | – | – | – | –
6 | CCCn1c(-c2ccc(Cl)cc2Cl)nc2cc(C(=O)N/N=C/c3ccc(F)cc3)ccc21 | 53.14% | 61.48% | 50.36% | 20 mm | 6.25 mg/L (≈ 13.3 µM) | 6.25 mg/L (≈ 13.3 µM) | 20 mm | 19 mm | 6.25 mg/L (≈ 13.3 µM) | 19 mm | 6.25 mg/L (≈ 13.3 µM) | 18 mm | 20 mm | 18 mm | 25 mg/L (≈ 53.3 µM) | 6.25 mg/L (≈ 13.3 µM) | 6.25 mg/L (≈ 13.3 µM) | 6.25 mg/L (≈ 13.3 µM) | 15 mm
7 | CCCn1c(-c2ccc(Cl)cc2Cl)nc2cc(C(=O)N/N=C/c3ccc(OC)cc3)ccc21 | 62.23% | 51.11% | 64.67% | 17 mm | 50 mg/L (≈ 104 µM) | 12.5 mg/L (≈ 26 µM) | 17 mm | 14 mm | 12.5 mg/L (≈ 26 µM) | 10 mm | 50 mg/L (≈ 104 µM) | 16 mm | 18 mm | 15 mm | 50 mg/L (≈ 104 µM) | 25 mg/L (≈ 51.9 µM) | 12.5 mg/L (≈ 26 µM) | 25 mg/L (≈ 51.9 µM) | 12 mm
8 | OC(Cn1cncn1)(Cn1cncn1)c1ccc(F)cc1F [FLUCONAZOLE] | – | – | – | – | – | – | – | – | – | – | – | 24 mm | 24 mm | 23 mm | 3.12 mg/L (≈ 10.2 µM) | 1.56 mg/L (≈ 5.09 µM) | 1.56 mg/L (≈ 5.09 µM) | 1.56 mg/L (≈ 5.09 µM) | 22 mm
9 | CCCn1c(-c2ccc(Cl)cc2Cl)nc2cc(C(=O)N/N=C/c3cccc(Cl)c3)ccc21 | 45.73% | 49.25% | 43.35% | 15 mm | 25 mg/L (≈ 51.5 µM) | 6.25 mg/L (≈ 12.9 µM) | 21 mm | 14 mm | 25 mg/L (≈ 51.5 µM) | 15 mm | 50 mg/L (≈ 103 µM) | 16 mm | 18 mm | 10 mm | 25 mg/L (≈ 51.5 µM) | 25 mg/L (≈ 51.5 µM) | 12.5 mg/L (≈ 25.7 µM) | 100 mg/L (≈ 206 µM) | 14 mm
10 | CCCn1c(-c2ccc(Cl)cc2Cl)nc2cc(C(=O)N/N=C/c3ccc(N(C)C)cc3)ccc21 | 53.84% | 55% | 50.94% | 17 mm | 6.25 mg/L (≈ 12.6 µM) | 25 mg/L (≈ 50.6 µM) | 15 mm | 16 mm | 12.5 mg/L (≈ 25.3 µM) | 19 mm | 25 mg/L (≈ 50.6 µM) | 16 mm | 16 mm | 16 mm | 50 mg/L (≈ 101 µM) | 25 mg/L (≈ 50.6 µM) | 25 mg/L (≈ 50.6 µM) | 12.5 mg/L (≈ 25.3 µM) | 13 mm
11 | CCCn1c(-c2ccc(Cl)cc2Cl)nc2cc(C(=O)N/N=C/c3cccc([N+](=O)[O-])c3)ccc21 | 53.14% | 52.22% | 42.91% | 17 mm | 12.5 mg/L (≈ 25.2 µM) | 25 mg/L (≈ 50.4 µM) | 15 mm | 18 mm | 12.5 mg/L (≈ 25.2 µM) | 17 mm | 12.5 mg/L (≈ 25.2 µM) | 20 mm | 20 mm | 17 mm | 12.5 mg/L (≈ 25.2 µM) | 3.12 mg/L (≈ 6.29 µM) | 6.25 mg/L (≈ 12.6 µM) | 6.25 mg/L (≈ 12.6 µM) | 15 mm
12 | CCCn1c(-c2ccc(Cl)cc2Cl)nc2cc(C(=O)N/N=C/c3ccccc3F)ccc21 | 67.78% | 60.55% | 68.9% | 17 mm | 6.25 mg/L (≈ 13.3 µM) | 6.25 mg/L (≈ 13.3 µM) | 20 mm | 18 mm | 12.5 mg/L (≈ 26.6 µM) | 19 mm | 12.5 mg/L (≈ 26.6 µM) | 18 mm | 22 mm | 19 mm | 12.5 mg/L (≈ 26.6 µM) | 6.25 mg/L (≈ 13.3 µM) | 3.12 mg/L (≈ 6.65 µM) | 6.25 mg/L (≈ 13.3 µM) | 16 mm
13 | CCCn1c(-c2ccc(Cl)cc2Cl)nc2cc(C(=O)N/N=C/c3cc(C)c(O)c(C)c3)ccc21 | 50.48% | 51.11% | 43.06% | 17 mm | 12.5 mg/L (≈ 25.2 µM) | 6.25 mg/L (≈ 12.6 µM) | 20 mm | 17 mm | 12.5 mg/L (≈ 25.2 µM) | 17 mm | 25 mg/L (≈ 50.5 µM) | 16 mm | 20 mm | 14 mm | 25 mg/L (≈ 50.5 µM) | 12.5 mg/L (≈ 25.2 µM) | 6.25 mg/L (≈ 12.6 µM) | 50 mg/L (≈ 101 µM) | 15 mm
